Here are results for 18 molecules from US11180504B2 (ORCHID PHARMA LTD., priority 2016, dated 2021).

In brackets after ≈: the same amount, converted by molar mass. Where two headings read alike, the source gives them in different places. Bounds are passed on as bounds.

The test system of test [1] is carbapenem sensitive Escherichia coli. The experiment in a line: MIC by broth micro-dilution (CLSI), carbapenem sensitive E. coli. The test is classed as cell-based.
Test [2] deals with carbapenemase producing K. pneumoniae. The experiment in a line: MIC by broth micro-dilution (CLSI), carbapenemase producing K. pneumoniae. The format is cell-based, Klebsiella pneumoniae. In general terms: Broth dilution looks for growth in wells or tubes with falling amounts of substance.
Test [3] deals with methicillin-sensitive Staphylococcus aureus. Put plainly: MIC by broth micro-dilution (CLSI), methicillin-sensitive S. aureus. The format is cell-based. Particulars: MSSA S. aureus ATCC29213.
Test [4] has as its system carbapenem sensitive Pseudomonas aeruginosa. Put plainly: MIC by broth micro-dilution (CLSI), carbapenem sensitive P. aeruginosa. The test is classed as cell-based.
Where [5] appears, read: Escherichia coli, ATCC25922, ESBL −ve E. coli ATCC25922, read-out: MIC.
[6] abbreviates: Klebsiella pneumoniae, ATCCBAA1705, KPC-2 K. pneumoniae ATCC BAA-1705, read-out: MIC.
The mark [7] stands for this setting: Staphylococcus aureus, ATCC 29213 / MSSA, read-out: MIC.
Setting [8] is: Pseudomonas aeruginosa, ATCC27853, Meropenem susceptible P. aeruginosa ATCC27853, read-out: MIC.
Where [9] appears, read: KPC-2 K. pneumoniae ATCC BAA-1705.
Where [10] appears, read: Meropenem susceptible P. aeruginosa ATCC27853.

With `C[C@@H](NC(=O)Cn1nnnc1C(=O)O)[C@H]1C(=O)N2C(C(=O)O)=C(S[C@@H]3CN[C@H](C(=O)N4CC[C@@H](N)C4)C3)[C@H](C)[C@H]12` [Example 403, (4R,5S,6R)-3-((3S,5S)-5-((R)-3-aminopyrrolidine-1-carbonyl)pyrrolidin-3-ylthio)-6-((R)-1-(2-(5-carboxy-1H-tetrazol-1-yl)acetamido)ethyl)-4-methyl-7-oxo-1-azabicyclo[3.2.0]hept-2-ene-2-carboxylic acid], the minimal inhibitory concentration (MIC) came to 0.5 µg/mL (≈ 0.866 µM) in test [1] (setting [5]), 8 µg/mL (≈ 13.8 µM) in test [2] (setting [6]), 4 µg/mL (≈ 6.92 µM) in test [3] (setting [7]) and 16 µg/mL (≈ 27.7 µM) in test [4] (setting [8]).

`C[C@@H](NC(=O)Cn1cnnn1)[C@H]1C(=O)N2C(C(=O)O)=C(S[C@@H]3CN[C@H](C(=O)N4CCC(N)CC4)C3)[C@H](C)[C@H]12` [Example 340, (4R,5S,6R)-6-((R) - 1-(2-(1H-tetrazol-1-yl)acetamido)ethyl)-3-((3S,5S)-5-(4-aminopiperidine-1-carbonyl)pyrrolidin-3-ylthio)-4-methyl-7-oxo-1-azabicyclo[3.2.0]hept-2-ene-2-carboxylic acid]: the minimal inhibitory concentration (MIC) in test [1] (setting [5]) was 1 µg/mL (≈ 1.83 µM); in test [2] (setting [6]), 4 µg/mL (≈ 7.3 µM); in test [3] (setting [7]), 8 µg/mL (≈ 14.6 µM); in test [4] (setting [8]), 4 µg/mL (≈ 7.3 µM).

Consider `C[C@@H](NC(=O)Cn1cnnn1)[C@H]1C(=O)N2C(C(=O)O)=C(S[C@@H]3CN[C@H](C(=O)N4CC5CCNC5(CO)C4)C3)[C@H](C)[C@H]12` (single isomer, unassigned) [Example 556], for which the MIC in test [1] (ESBL −ve E. coli ATCC25922) was 0.125 µg/mL (≈ 0.212 µM); in test [2] (setting [9]), 1 µg/mL (≈ 1.7 µM); in test [3] it was 2 µg/mL (≈ 3.39 µM); in test [4] (setting [10]), 4 µg/mL (≈ 6.78 µM).

Turning to `C[C@@H](NC(=O)Cn1cnnn1)[C@H]1C(=O)N2C(C(=O)O)=C(S[C@@H]3CN[C@H](C(=O)N4C[C@@H](N)C[C@H]4CO)C3)[C@H](C)[C@H]12` [Example 412, (4R,5S,6R)-6-((R)-1-(2-(1H-tetrazol-1-yl)acetamido)ethyl)-3-((3S,5S)-5-((2S,4S)-4-amino-2-(hydroxymethyl)pyrrolidine-1-carbonyl)pyrrolidin-3-ylthio)-4-methyl-7-oxo-1-azabicyclo[3.2.0]hept-2-ene-2-carboxylic acid], the minimum inhibitory concentration (MIC) was determined as 0.25 µg/mL (≈ 0.444 µM) in test [1] (setting [5]), 2 µg/mL (≈ 3.55 µM) in test [2] (setting [6]), 2 µg/mL (≈ 3.55 µM) in test [3] (setting [7]) and 1 µg/mL (≈ 1.77 µM) in test [4] (setting [8]).

As for `C[C@@H](NC(=O)Cn1cnnn1)[C@H]1C(=O)N2C(C(=O)O)=C(S[C@@H]3CN[C@H](C(=O)N4CC5CCN(CCN)C5C4)C3)[C@H](C)[C@H]12` (single isomer, unassigned) [Example 578], the MIC in test [1] (setting [5]) was determined as 0.25 µg/mL (≈ 0.415 µM); in test [2] (setting [6]), 1 µg/mL (≈ 1.66 µM); in test [3] (setting [7]), 2 µg/mL (≈ 3.32 µM); in test [4] (setting [8]), 4 µg/mL (≈ 6.64 µM).

Turning to `C[C@@H](NC(=O)Cn1cnnn1)[C@H]1C(=O)N2C(C(=O)O)=C(S[C@@H]3CN[C@H](C(=O)N4CC[C@@H](O)C4)C3)[C@H](C)[C@H]12` [Example 393, (4R,5S,6R)-6-((R)-1-(2-(1H-tetrazol-1-yl)acetamido)ethyl)-3-((3S,5S)-5-((R)-3-hydroxypyrrolidine-1-carbonyl)pyrrolidin-3-ylthio)-4-methyl-7-oxo-1-azabicyclo[3.2.0]hept-2-ene-2-carboxylic acid], the MIC in test [1] (setting [5]) turned out to be 0.125 µg/mL (≈ 0.234 µM); in test [2] (setting [6]), 1 µg/mL (≈ 1.87 µM); in test [3] (setting [7]), 4 µg/mL (≈ 7.48 µM); in test [4] (setting [8]) it was 8 µg/mL (≈ 15 µM).

`C[C@@H](NC(=O)Cn1cnnn1)[C@H]1C(=O)N2C(C(=O)O)=C(S[C@@H]3CN[C@H](C(=O)N4CC5CC(CO)NC5C4)C3)[C@H](C)[C@H]12` (single isomer, unassigned) [Example 551]: the MIC in test [1] (setting [5]) is 0.25 µg/mL (≈ 0.424 µM); in test [2] (setting [6]), 2 µg/mL (≈ 3.39 µM); in test [3] (setting [7]), 4 µg/mL (≈ 6.78 µM); in test [4] (setting [8]), 2 µg/mL (≈ 3.39 µM).

Take `CNCc1cn(CC(=O)N[C@H](C)[C@H]2C(=O)N3C(C(=O)O)=C(S[C@@H]4CN[C@H](C(=O)N(C)C)C4)[C@H](C)[C@H]23)nn1` [Example 309, (4R,5S,6R)-3-((3S,5S)-5-(dimethylcarbamoyl)pyrrolidin-3-ylthio)-4-methyl-6-((R) - 1-(2-(4-((methylamino)methyl)-1H-1,2,3-triazol-1-yl)acetamido)ethyl)-7-oxo-1-azabicyclo[3.2.0]hept-2-ene-2-carboxylic acid]: the minimal inhibitory concentration (MIC) in test [1] (setting [5]) stood at 1 µg/mL (≈ 1.87 µM); in test [2] (setting [6]) it was 4 µg/mL (≈ 7.48 µM); in test [3] (setting [7]), 16 µg/mL (≈ 29.9 µM); in test [4] (setting [8]), 32 µg/mL (≈ 59.9 µM).

Take `C[C@@H](NC(=O)Cn1cnnn1)[C@H]1C(=O)N2C(C(=O)O)=C(S[C@@H]3CN[C@H](C(=O)N4CC5(CC(N)CO5)C4)C3)[C@H](C)[C@H]12` (single isomer, unassigned) [Example 531]: the MIC in test [1] (ESBL −ve E. coli ATCC25922) was found to be 0.125 µg/mL (≈ 0.217 µM); in test [2] (setting [9]), 2 µg/mL (≈ 3.47 µM); in test [3], 4 µg/mL (≈ 6.95 µM); in test [4] (setting [10]), 1 µg/mL (≈ 1.74 µM).

As for `C[C@@H](NC(=O)Cn1cnnn1)[C@H]1C(=O)N2C(C(=O)O)=C(S[C@@H]3CN[C@H](C(=O)N4CC5CCN(C(=N)N)C5C4)C3)[C@H](C)[C@H]12` (single isomer, unassigned) [Example 570], the minimum inhibitory concentration (MIC) in test [1] (ESBL −ve E. coli ATCC25922) is 0.125 µg/mL (≈ 0.208 µM); in test [2] (setting [9]), 1 µg/mL (≈ 1.66 µM); in test [3] it was 1 µg/mL (≈ 1.66 µM); in test [4] (setting [10]) it was 2 µg/mL (≈ 3.32 µM).

Regarding `C[C@@H](NC(=O)Cn1cnnn1)[C@H]1C(=O)N2C(C(=O)O)=C(S[C@@H]3CN[C@H](C(=O)N4CC5CNCC5C4)C3)[C@H](C)[C@H]12` (stereo partly drawn) [Example 540, (4R,5S,6R)-6-((R)-1-(2-(1H-tetrazol-1-yl)acetamido)ethyl)-4-methyl-3-((3S,5S)-5-(octahydropyrrolo-[3,4-c]pyrrole-2-carbonyl)pyrrolidin-3-ylthio)-7-oxo-1-azabicyclo[3.2.0]hept-2-ene-2-carboxylic acid], the MIC in test [1] (setting [5]) was determined as 0.25 µg/mL (≈ 0.447 µM); in test [2] (setting [6]) it was 2 µg/mL (≈ 3.57 µM); in test [3] (setting [7]), 4 µg/mL (≈ 7.15 µM); in test [4] (setting [8]), 1 µg/mL (≈ 1.79 µM).

With `C[C@@H](NC(=O)[C@@H](N)Cn1cnnn1)[C@H]1C(=O)N2C(C(=O)O)=C(S[C@@H]3CN[C@H](C(=O)N(C)C)C3)[C@H](C)[C@H]12` [Example 322, (4R,5S,6R)-6-((R) - 1-((S)-2-amino-3-(1H-tetrazol-1-yl)propanamido)ethyl)-3-((3S,5S)-5-(dimethylcarbamoyl)pyrrolidin-3-ylthio)-4-methyl-7-oxo-1-azabicyclo[3.2.0]hept-2-ene-2-carboxylic acid], the MIC is 2 µg/mL (≈ 3.83 µM) in test [1] (setting [5]), 16 µg/mL (≈ 30.7 µM) in test [2] (setting [6]), 16 µg/mL (≈ 30.7 µM) in test [3] (setting [7]) and over 128 µg/mL in test [4] (setting [8]).

For the molecule `C[C@@H](NC(=O)Cn1cnnn1)[C@H]1C(=O)N2C(C(=O)O)=C(S[C@@H]3CN[C@H](C(=O)N4CCC(N)C(F)C4)C3)[C@H](C)[C@H]12` (single isomer, unassigned) [Example 425], the MIC was found to be 0.25 µg/mL (≈ 0.442 µM) in test [1] (setting [5]), 2 µg/mL (≈ 3.54 µM) in test [2] (setting [6]), 4 µg/mL (≈ 7.07 µM) in test [3] (setting [7]) and 2 µg/mL (≈ 3.54 µM) in test [4] (setting [8]).

In the case of `C[C@@H](NC(=O)Cn1cnnn1)[C@H]1C(=O)N2C(C(=O)[O-])=C(S[C@@H]3CN[C@H](C(=O)N4CCC5C[N+](C)(C)CCC54)C3)[C@H](C)[C@H]12` (stereo partly drawn) [Example 599], the minimum inhibitory concentration (MIC) in test [1] (ESBL −ve E. coli ATCC25922) is 1 µg/mL (≈ 1.66 µM); in test [2] (setting [9]), 2 µg/mL (≈ 3.32 µM); in test [3], 4 µg/mL (≈ 6.65 µM); in test [4] (setting [10]), 4 µg/mL (≈ 6.65 µM).

Consider `C[C@@H](NC(=O)Cn1cnnn1)[C@H]1C(=O)N2C(C(=O)O)=C(S[C@@H]3CN[C@H](C(=O)N4C[C@@H](F)[C@@H](N)C4)C3)[C@H](C)[C@H]12` [Example 498, (4R,5S,6R)-6-((R)-1-(2-(1H-tetrazol-1-yl)acetamido)ethyl)-3-((3S,5S)-5-((3S,4R)-3-amino-4-fluoropyrrolidine-1-carbonyl)pyrrolidin-3-ylthio)-4-methyl-7-oxo-1-azabicyclo[3.2.0]hept-2-ene-2-carboxylic acid], for which the minimum inhibitory concentration (MIC) in test [1] (setting [5]) came out at 0.125 µg/mL (≈ 0.227 µM); in test [2] (setting [6]) it was 2 µg/mL (≈ 3.63 µM); in test [3] (setting [7]), 2 µg/mL (≈ 3.63 µM); in test [4] (setting [8]) it was 8 µg/mL (≈ 14.5 µM).

As for `C[C@@H](NC(=O)Cn1cnnn1)[C@H]1C(=O)N2C(C(=O)O)=C(S[C@@H]3CN[C@H](C(=O)N4C[C@H](N)[C@H](NC(=N)N)C4)C3)[C@H](C)[C@H]12` [Example 565, (4R,5S,6R)-6-((R)-1-(2-(1H-tetrazol-1-yl)acetamido)ethyl)-3-((3S,5S)-5-((3S,4R)-3-amino-4-guanidinopyrrolidine-1-carbonyl)-pyrrolidin-3-ylthio)-4-methyl-7-oxo-1-azabicyclo[3.2.0]hept-2-ene-2-carboxylic acid], the MIC turned out to be 0.25 µg/mL (≈ 0.423 µM) in test [1] (setting [5]), 2 µg/mL (≈ 3.39 µM) in test [2] (setting [6]), 2 µg/mL (≈ 3.39 µM) in test [3] (setting [7]) and 1 µg/mL (≈ 1.69 µM) in test [4] (setting [8]).

For `C[C@@H](NC(=O)Cn1cnnn1)[C@H]1C(=O)N2C(C(=O)O)=C(S[C@@H]3CN[C@H](C(=O)N4C[C@@H](O)[C@@H](N)C4)C3)[C@H](C)[C@H]12` [Example 431, (4R,5S,6R)-6-((R)-1-(2-(1H-tetrazol-1-yl)acetamido)ethyl)-3-((3S,5S)-5-((3S,4R)-3-amino-4-hydroxypyrrolidine-1-carbonyl)pyrrolidin-3-ylthio)-4-methyl-7-oxo-1-azabicyclo[3.2.0]hept-2-ene-2-carboxylic acid], the minimum inhibitory concentration (MIC) amounted to 0.25 µg/mL (≈ 0.455 µM) in test [1] (setting [5]), 0.5 µg/mL (≈ 0.91 µM) in test [2] (setting [6]), 2 µg/mL (≈ 3.64 µM) in test [3] (setting [7]) and 1 µg/mL (≈ 1.82 µM) in test [4] (setting [8]).

Consider `C[C@@H](NC(=O)Cn1cnnn1)[C@H]1C(=O)N2C(C(=O)O)=C(S[C@@H]3CN[C@H](C(=O)N4CC5(CC(N)CO5)C4)C3)[C@H](C)[C@H]12` (single isomer, unassigned) [Example 530], for which the minimum inhibitory concentration (MIC) in test [1] (setting [5]) was found to be 0.25 µg/mL (≈ 0.434 µM); in test [2] (setting [6]), 1 µg/mL (≈ 1.74 µM); in test [3] (setting [7]), 2 µg/mL (≈ 3.47 µM); in test [4] (setting [8]) it was 0.5 µg/mL (≈ 0.869 µM).

For orientation: MIC means the least concentration at which growth counts as inhibited.
